In the experiment the target is T1, Human plasma kallikrein (Homo sapiens, UniProt P03952).
T1 construct: purchased Kordia (Leiden, Netherlands) batch HPKA 1303
As to the kind of experiment: In vitro inhibition of plasma kallikrein (fluorogenic substrate DPro-Phe-Arg-(Rh110)-γGlu-OH). It is filed as biochemical. The following applies: human plasma kallikrein nominally 12 pM, substrate 0.5 μM, 1 hour pre-incubation at room temperature, read after 1 hour (t=60 min). The method, then:
In Vitro Inhibition of Plasma Kallikrein
The fluorogenic substrate DPro-Phe-Arg-(Rh110)-γGlu-OH (where DPro is the amino acid d-proline, Rh110 is the fluorophore rhodamine 110 and γGlu is a […] linked to Rh110 via the gamma-carbonyl function; from Biosyntan, Berlin, Germany), being based on the chromogenic substrate described in Gallimore et al (Thromb Res 25, 293-298, 1982), was dissolved in DMSO at 5 mM and stored at −80° C. All other chemicals were of analytical grade.
Human plasma kallikrein was purchased from Kordia (Leiden, Netherlands, batch HPKA 1303) in lyophilized form.
The protein solution was reconstituted from the lyophilisate by addition of deinonized water. The resulting stock solution comprised the protein at a concentration of 0.17 mg/ml in 4 mM sodium acetate/HCl and 150 mM NaCl at pH 5.3. The stock solution was stored in aliquots at −80° C. Enzymatic reactions were conducted in ‘assay buffer’, comprising 50 mM Hepes/NaOH at pH 7.8, 150 mM NaCl, 1 mM EDTA and 0.05% (w/v) CHAPS.
Both, enzyme and substrate were diluted in assay buffer.
All protein and peptide containing solutions were handled in siliconized tubes (Life Systems Design, Merenschwand, Switzerland). The compound solutions as well as the enzyme and the substrate solutions were transferred to 384-well plates (black Cliniplate; cat. no. 95040020 Labsystems Oy, Finland) by means of a CyBi-Well 96-channel pipettor (CyBio AG, Jena, Germany). Plate measurements were conducted by the means of a Safire2 reader (TECAN, Maennedorf, Switzerland). The Safire2 is a monochomator-based instrument and wavelengths of 485 nm and 535 nm were taken for fluorescence excitation and emission acquisition, respectively. The bandwidths were set to 10 nm in both the excitation and the emission path. The fluorescence in each well was excited by three flashes per measurement.
For the determination of IC50 values, the assays were performed at room temperature in 384-well plates with a total assay volume of 25.25 μl per well.
The test compound was dissolved in 90% (v/v) DMSO/water. For the assays, […] of the 90% (v/v) DMSO/water solution or compound solution were added per well, followed by the addition of 12.5 μl protease solution (protease in assay buffer). The final assay concentration of the human plasma kallikrein was nominally 12 pM, the 11 compound concentrations in the dilution series were in the range form 1 nM to 100 μM. After 1 hour of pre-incubation at room temperature, the reactions were started by the addition of 12.5 μl substrate solution (in assay buffer, final assay concentration was 0.5 μM). After the addition of the substrate solution, the final DMSO concentration in the assay was 0.9% (v/v). The effect of the compound on the enzymatic activity was obtained from the linear part of the progress curves and determined after 1 hour (t=60 min). The IC50 value was calculated from the plot of percentage of inhibition vs. inhibitor concentration by a logistics fit according to the following equation:
where y is the %-inhibition at the inhibitor concentration, x. A1 is the lowest inhibition value, i.e. 0%, and A2 the maximum inhibition value, i.e. 100%. The exponent, p, is the Hill coefficient. The curve fitting was conducted with the non-linear regression routine of the analysis software Origin 7.5SR6 (Origin Lab Corporation).

pIC50: −log10 of the molar value. Counter-ions that a name gives are not always drawn.

T1 sequence (P03952 391-638 limits assumed): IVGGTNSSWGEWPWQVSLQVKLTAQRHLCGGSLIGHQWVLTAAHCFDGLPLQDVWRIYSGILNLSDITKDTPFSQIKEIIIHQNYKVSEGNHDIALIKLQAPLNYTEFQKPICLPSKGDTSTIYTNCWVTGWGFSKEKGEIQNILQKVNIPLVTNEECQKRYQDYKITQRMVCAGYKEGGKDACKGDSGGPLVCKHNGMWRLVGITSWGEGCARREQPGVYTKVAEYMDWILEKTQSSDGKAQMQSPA
T1 sequence (P03952 20-390 partner limits assumed): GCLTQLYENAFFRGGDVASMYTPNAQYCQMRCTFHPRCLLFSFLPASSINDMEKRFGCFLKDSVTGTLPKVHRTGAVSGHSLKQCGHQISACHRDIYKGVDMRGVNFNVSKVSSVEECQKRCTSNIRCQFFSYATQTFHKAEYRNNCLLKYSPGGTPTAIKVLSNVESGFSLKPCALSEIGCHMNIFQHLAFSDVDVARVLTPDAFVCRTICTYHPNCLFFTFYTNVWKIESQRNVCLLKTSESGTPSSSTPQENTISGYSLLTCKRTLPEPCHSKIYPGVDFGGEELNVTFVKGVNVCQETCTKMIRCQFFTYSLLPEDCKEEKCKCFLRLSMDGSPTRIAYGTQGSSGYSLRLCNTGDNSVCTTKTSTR

As to `Cc1ccc2cc(Cn3cc(C(=O)NCc4c(C)ccnc4C)nn3)ccc2n1` [Example 1, N-((2,4-dimethylpyridin-3-yl)methyl)-1-((2-methylquinolin-6-yl)methyl)-1H-1,2,3-triazole-4-carboxamide], the pIC50 was 4.99.

Consider `COc1ccnc(C)c1CNC(=O)c1cn(Cc2ccc3nc(C)ccc3c2)nn1` [Example 2, N-((4-methoxy-2-methylpyridin-3-yl)methyl)-1-((2-methylquinolin-6-yl)methyl)-1H-1,2,3-triazole-4-carboxamide], for which the pIC50 is 5.44.

Regarding `Cc1ccc2cc(Cn3cc(C(=O)NCc4c(C)cc(O)nc4C)nn3)ccc2n1` [Example 3, N-((6-hydroxy-2,4-dimethylpyridin-3-yl)methyl)-1-((2-methylquinolin-6-yl)methyl)-1H-1,2,3-triazole-4-carboxamide], the pIC50 is 6.24.

Turning to `Cc1ccc2cc(Cn3cc(C(=O)NCc4c(C)cnc(O)c4C)nn3)ccc2n1` [Example 4, N-((2-hydroxy-3,5-dimethylpyridin-4-yl)methyl)-1-((2-methylquinolin-6-yl)methyl)-1H-1,2,3-triazole-4-carboxamide], the pIC50 is 5.62.

Consider `Cc1cnc2[nH]cc(CNC(=O)c3cn(Cc4ccc5nc(C)ccc5c4)nn3)c2c1` [Example 5, N-((5-methyl-1H-pyrrolo[2,3-b]pyridin-3-yl)methyl)-1-((2-methylquinolin-6-yl)methyl)-1H-1,2,3-triazole-4-carboxamide], for which the pIC50 is 5.53.

Take `Cc1ccc2cc(Cn3cc(C(=O)NCc4c(C)ccnc4C(F)(F)F)nn3)ccc2n1` [Example 6, N-((4-methyl-2-(trifluoromethyl)pyridin-3-yl)methyl)-1-((2-methylquinolin-6-yl)methyl)-1H-1,2,3-triazole-4-carboxamide]: the pIC50 is 5.55.

For `O=C(NCc1cccc(Cl)c1)c1cnn(Cc2ccc(Cn3cccn3)cc2)c1` [Example 7, 1-(4-((1H-pyrazol-1-yl)methyl)benzyl)-N-(3-chlorobenzyl)-1H-pyrazole-4-carboxamide], the pIC50 is 5.88.

The compound `C[C@@H](NC(=O)c1cnn(Cc2ccc(Cn3cccn3)cc2)c1)c1cccc(Cl)c1` [Example 8, (R)-1-(4-((1H-pyrazol-1-yl)methyl)benzyl)-N-(1-(3-chlorophenyl)ethyl)-1H-pyrazole-4-carboxamide] showed a pIC50 of 5.79.

`N=C(N)c1ccc(CNC(=O)c2cnn(Cc3ccc4ccccc4c3)c2)cc1` [Example 9, N-(4-carbamimidoylbenzyl)-1-(naphthalen-2-ylmethyl)-1H-pyrazole-4-carboxamide hydrochloride] gave a pIC50 of 9.53.

As for `N=C(N)c1ccc(CNC(=O)c2cnn(Cc3ccc(Cn4cccn4)cc3)c2)cc1` [Example 10, 1-(4-((1H-pyrazol-1-yl)methyl)benzyl)-N-(4-carbamimidoylbenzyl)-1H-pyrazole-4-carboxamide hydrochloride], the pIC50 is 9.06.

Consider `COc1ccc(Cn2cc(C(=O)NCc3n[nH]c4ccc(Cl)cc34)cn2)cc1` [Example 11, N-((5-chloro-1H-indazol-3-yl)methyl)-1-(4-methoxybenzyl)-1H-pyrazole-4-carboxamide], for which the pIC50 was 6.45.

Regarding `Cc1ccc2cc(Cn3cc(C(=O)NCc4c[nH]c5ccc(Cl)cc45)cn3)ccc2n1` [Example 12, N-((5-chloro-1H-indol-3-yl)methyl)-1-((2-methylquinolin-6-yl)methyl)-1H-pyrazole-4-carboxamide], the pIC50 is 7.61.

For `Cc1ccc2cc(Cn3cc(C(=O)NCc4ncc(N)nc4C)nn3)ccc2n1` [Example 13, N-((5-amino-3-methylpyrazin-2-yl)methyl)-1-((2-methylquinolin-6-yl)methyl)-1H-1,2,3-triazole-4-carboxamide], the pIC50 was 6.11.

On to `COc1ccc(Cl)c(CNC(=O)c2cn(Cc3ccc4nc(C)ccc4c3)nn2)c1F` [Example 14, N-(6-chloro-2-fluoro-3-methoxybenzyl)-1-((2-methylquinolin-6-yl)methyl)-1H-1,2,3-triazole-4-carboxamide], for which the pIC50 was 7.38.

For the compound `O=C(NCc1n[nH]c2ccc(Cl)cc12)c1cnn(Cc2ccc(Cn3ccccc3=O)cc2)c1` [Example 15, N-((5-chloro-1H-indazol-3-yl)methyl)-1-(4-((2-oxopyridin-1(2H)-yl)methyl)benzyl)-1H-pyrazole-4-carboxamide], the pIC50 was 9.97.

`O=C(NCc1c[nH]c2ccc(Cl)cc12)c1cnn(Cc2ccc(Cn3ccccc3=O)cc2)c1` [Example 16, N-((5-chloro-1H-indol-3-yl)methyl)-1-(4-((2-oxopyridin-1(2H)-yl)methyl)benzyl)-1H-pyrazole-4-carboxamide] gave a pIC50 of 9.48.

`O=C(NCc1n[nH]c2ccc(Cl)cc12)c1cnn(Cc2ccc(Cn3cccn3)cc2)c1` [Example 17, 1-(4-((1H-pyrazol-1-yl)methyl)benzyl)-N-((5-chloro-1H-indazol-3-yl)methyl)-1H-pyrazole-4-carboxamide] had a pIC50 of 9.26.

With `O=C(NCc1c[nH]c2ccc(Cl)cc12)c1cnn(Cc2ccc(Cn3cccn3)cc2)c1` [Example 18, 1-(4-((1H-pyrazol-1-yl)methyl)benzyl)-N-((5-chloro-1H-indol-3-yl)methyl)-1H-pyrazole-4-carboxamide], the pIC50 was 8.36.

For `O=C(NCc1n[nH]c2ccc(Cl)cc12)c1cnn(Cc2ccc(CN3CCOC3=O)cc2)c1` [Example 19, N-((5-chloro-1H-indazol-3-yl)methyl)-1-(4-((2-oxooxazolidin-3-yl)methyl)benzyl)-1H-pyrazole-4-carboxamide], the pIC50 is 8.04.

As to `Cc1ccc2cc(Cn3cc(C(=O)NCc4n[nH]c5ccc(Cl)cc45)cn3)ccc2n1` [Example 20, N-((5-chloro-1H-indazol-3-yl)methyl)-1-((2-methylquinolin-6-yl)methyl)-1H-pyrazole-4-carboxamide], the pIC50 was 7.96.

Consider `O=C(NCc1n[nH]c2ccc(Cl)cc12)c1cnn(Cc2ccc(S(=O)(=O)n3cccc3)cc2)c1` [Example 21, 1-(4-((1H-pyrrol-1-yl)sulfonyl)benzyl)-N-((5-chloro-1H-indazol-3-yl)methyl)-1H-pyrazole-4-carboxamide], for which the pIC50 was 7.33.

Compound `O=C(NCc1c[nH]c2ccc(Cl)cc12)c1cnn(Cc2ccc(CN3CCOC3=O)cc2)c1` [Example 22, N-((5-chloro-1H-indol-3-yl)methyl)-1-(4-((2-oxooxazolidin-3-yl)methyl)benzyl)-1H-pyrazole-4-carboxamide] had a negative-log IC50 (pIC50) of 7.22.

Compound `O=C(NCc1c[nH]c2ccc(Cl)cc12)c1cnn(Cc2ccc(S(=O)(=O)n3cccc3)cc2)c1` [Example 23, 1-(4-((1H-pyrrol-1-yl)sulfonyl)benzyl)-N-((5-chloro-1H-indol-3-yl)methyl)-1H-pyrazole-4-carboxamide] showed a pIC50 of 6.87.

Regarding `COc1ccc(Cn2cc(C(=O)NCc3n[nH]c4ccc(Cl)cc34)cn2)cc1OC` [Example 24, N-((5-chloro-1H-indazol-3-yl)methyl)-1-(3,4-dimethoxybenzyl)-1H-pyrazole-4-carboxamide], the pIC50 is 6.55.

Turning to `COc1cc(Cn2cc(C(=O)NCc3n[nH]c4ccc(Cl)cc34)cn2)cc(OC)c1` [Example 25, N-((5-chloro-1H-indazol-3-yl)methyl)-1-(3,5-dimethoxybenzyl)-1H-pyrazole-4-carboxamide], the pIC50 is 6.51.

One may read the pIC50 as −log10 of the IC50, conventionally taken in molar units.

For the origin of these results see US20140378474A1, “5-membered heteroarylcarboxamide derivatives as plasma kallikrein inhibitors” (NOVARTIS AG, priority 2012, published 2014).
